Data as given in ChEMBL document CHEMBL1201862, “PubChem BioAssay data set” (2004).
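Each compound was tested at five concentrations against cells in 96-well plates for 48 hours. The concentration for 50% growth inhibition is given as GI50.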 Activity calls are given as the source filed them. No stated cut-off is given here; in the data, active = GI50 up to about 1.1 µM and inactive = higher.

Assays:
Test in all cases: NCI-60 cell line screen, 48 h
DLD-1 = tested on: DLD-1
SK-MEL-5 = tested on: SK-MEL-5
SNB-19 = tested on: SNB-19
CAKI-1 = tested on: CAKI-1
LOX IMVI = tested on: LOX IMVI
A498 = tested on: A498
HL-60 = tested on: HL-60
Malme-3M = tested on: Malme-3M
NCI-H522 = tested on: NCI-H522
UACC-62 = tested on: UACC-62
COLO 205 = tested on: COLO 205
A549 = tested on: A549
OVCAR-3 = tested on: OVCAR-3
NCI-H226 = tested on: NCI-H226
SNB-75 = tested on: SNB-75

Measured: GI50

Cc1cc(O)c2c(c1)OC1(C)CCC3C(C)(C)CCCC34COC2C14 (configuration not stated)
inactive: DLD-1 20.4 µM | SK-MEL-5 14.4 µM | SNB-19 18.3 µM | CAKI-1 18.3 µM | LOX IMVI 14 µM | A498 13.2 µM | HL-60 16.6 µM | Malme-3M 13.3 µM | NCI-H522 17.6 µM | UACC-62 19.2 µM | COLO 205 14.4 µM | A549 13.1 µM | OVCAR-3 13.4 µM | NCI-H226 14 µM

COc1ccc(-c2cc(-c3cc(C)ccc3O)nc(O)n2)cc1
inactive: DLD-1 > 100 µM | SNB-19 47 µM | CAKI-1 > 100 µM | SNB-75 26.2 µM | LOX IMVI > 100 µM | A498 74.6 µM | HL-60 > 100 µM | Malme-3M > 100 µM | NCI-H522 24.6 µM | UACC-62 > 100 µM | COLO 205 > 100 µM | A549 > 100 µM | OVCAR-3 > 100 µM | NCI-H226 > 100 µM

C[C@]12CCCC(=O)C1C[C@H](C(=O)O)CC2 (some centres not stated)
inactive: DLD-1 > 100 µM | SNB-19 > 100 µM | CAKI-1 > 100 µM | SNB-75 > 100 µM | LOX IMVI > 100 µM | A498 > 100 µM | HL-60 > 100 µM | Malme-3M > 100 µM | NCI-H522 > 100 µM | UACC-62 > 100 µM | COLO 205 > 100 µM | A549 > 100 µM | OVCAR-3 > 100 µM | NCI-H226 > 100 µM

CC1=C(C)C(=O)C2=C(OCCCO2)C1=O
inactive: DLD-1 > 10 µM | SNB-19 > 100 µM | SNB-75 23.8 µM | A498 > 10 µM | HL-60 3.61 µM | Malme-3M > 10 µM | NCI-H522 18 µM | UACC-62 18.1 µM | COLO 205 34.2 µM | A549 81.8 µM | OVCAR-3 18.1 µM | NCI-H226 > 10 µM

Cc1ccnc(NS(=O)(=O)c2ccc(NC3=CC(=O)C(=O)c4ccccc43)cc2)n1
inactive: DLD-1 > 100 µM | SK-MEL-5 > 100 µM | SNB-19 > 100 µM | CAKI-1 > 100 µM | SNB-75 > 100 µM | LOX IMVI > 100 µM | A498 > 100 µM | HL-60 > 100 µM | Malme-3M > 100 µM | NCI-H522 > 100 µM | UACC-62 > 100 µM | COLO 205 > 100 µM | A549 > 100 µM | OVCAR-3 > 100 µM | NCI-H226 > 100 µM

COC(=O)C(CC(=O)Nc1ccc(C)cc1)C(=O)C(=O)Nc1ccccc1C(C)C (configuration not stated)
inactive: DLD-1 > 100 µM | SK-MEL-5 > 100 µM | SNB-19 > 100 µM | CAKI-1 > 100 µM | SNB-75 > 100 µM | LOX IMVI > 100 µM | A498 > 100 µM | HL-60 > 100 µM | Malme-3M > 100 µM | NCI-H522 > 100 µM | UACC-62 > 100 µM | COLO 205 89.7 µM | A549 > 100 µM | OVCAR-3 > 100 µM | NCI-H226 > 100 µM

COc1ccc(NC(=O)C(=O)C2NC(=S)NC2=O)c(OC)c1 (configuration not stated)
inactive: DLD-1 > 100 µM | SNB-19 > 100 µM | SNB-75 > 100 µM | LOX IMVI > 100 µM | A498 > 100 µM | HL-60 > 100 µM | Malme-3M > 100 µM | UACC-62 > 100 µM | COLO 205 > 100 µM | A549 > 100 µM | OVCAR-3 > 100 µM | NCI-H226 > 100 µM

O=C(CSc1nnc(Cc2ccccc2)o1)Nc1ccccc1Cl
inactive: DLD-1 > 100 µM | SK-MEL-5 > 100 µM | SNB-19 > 100 µM | CAKI-1 > 100 µM | LOX IMVI > 100 µM | A498 > 100 µM | HL-60 > 100 µM | Malme-3M > 100 µM | NCI-H522 > 100 µM | UACC-62 > 100 µM | COLO 205 > 100 µM | A549 > 100 µM | OVCAR-3 > 100 µM | NCI-H226 > 100 µM

CCCCCCCCCCNC(=S)OCCCC
inactive: DLD-1 27.2 µM | SK-MEL-5 18 µM | SNB-19 46.8 µM | CAKI-1 25.8 µM | SNB-75 36.5 µM | LOX IMVI 15.9 µM | A498 25.6 µM | HL-60 14.3 µM | Malme-3M 27.7 µM | NCI-H522 18.6 µM | UACC-62 22.5 µM | A549 26 µM

O=C(c1cccs1)N(C(=S)N1CCN(c2ccccn2)CC1)C1CCCCC1
inactive: DLD-1 63.8 µM | SK-MEL-5 31.3 µM | SNB-19 > 100 µM | CAKI-1 76.2 µM | SNB-75 > 100 µM | LOX IMVI 77.4 µM | HL-60 > 100 µM | Malme-3M 36.3 µM | NCI-H522 66.2 µM | UACC-62 > 100 µM | COLO 205 22.4 µM | A549 43.7 µM | OVCAR-3 57.3 µM | NCI-H226 19.5 µM

CN(C)C(=S)/N=c1\ss/c(=N/c2ccccc2)n1C
inactive: DLD-1 > 100 µM | SNB-19 58.3 µM | CAKI-1 36.2 µM | SNB-75 16.2 µM | LOX IMVI > 100 µM | A498 28.9 µM | HL-60 > 100 µM | Malme-3M 40.5 µM | UACC-62 > 100 µM | A549 59.2 µM | NCI-H226 > 100 µM

CC(=O)Oc1cc(C)c2c(c1OC(C)=O)CC1(O2)[C@@H](C)CCC2[C@@]3(C)CC[C@H](OC(C)=O)C(C)(C)C3CC[C@]21C (some centres not stated)
inactive: DLD-1 3.42 µM | SK-MEL-5 3.1 µM | SNB-19 7.31 µM | CAKI-1 2.2 µM | SNB-75 3.57 µM | LOX IMVI 4.24 µM | A498 7.46 µM | Malme-3M 2.86 µM | UACC-62 2.46 µM | COLO 205 1.63 µM | A549 5.3 µM | OVCAR-3 2.72 µM | NCI-H226 11.4 µM

O=[N+]([O-])c1ccc(OCCNc2cccc3ccccc23)cc1
inactive: DLD-1 37.9 µM | SK-MEL-5 30.5 µM | SNB-19 > 100 µM | CAKI-1 > 100 µM | SNB-75 89.7 µM | A498 > 100 µM | Malme-3M > 100 µM | NCI-H522 > 100 µM | UACC-62 > 100 µM | COLO 205 > 100 µM | A549 60.1 µM | OVCAR-3 > 100 µM | NCI-H226 > 100 µM

C[Si](C)(C)OC1(C#N)C2C3CC4C2C(=O)C2C4C3C21 (configuration not stated)
inactive: DLD-1 > 100 µM | SK-MEL-5 > 100 µM | SNB-19 > 100 µM | CAKI-1 > 100 µM | SNB-75 > 100 µM | A498 > 100 µM | HL-60 > 100 µM | Malme-3M > 100 µM | UACC-62 > 100 µM | COLO 205 > 100 µM | A549 > 100 µM | OVCAR-3 > 100 µM | NCI-H226 > 100 µM

O=C(Nc1nc2ccccc2n1Cc1ccc(Cl)cc1)NC12CC3CC(CC(C3)C1)C2
inactive: DLD-1 36.2 µM | SK-MEL-5 33.3 µM | SNB-19 24.9 µM | CAKI-1 34.7 µM | SNB-75 7.74 µM | LOX IMVI 34.1 µM | HL-60 > 100 µM | Malme-3M 19.1 µM | NCI-H522 16.1 µM | UACC-62 17.3 µM | COLO 205 36.2 µM | A549 21.1 µM | OVCAR-3 22.6 µM | NCI-H226 24 µM

N#C/N=C(\NCCc1c[nH]c2ccccc12)NCc1ccccc1
inactive: DLD-1 94.8 µM | SK-MEL-5 24.4 µM | SNB-19 68.9 µM | SNB-75 43.8 µM | LOX IMVI 75.9 µM | HL-60 27.5 µM | UACC-62 53.6 µM | COLO 205 61 µM | A549 60.5 µM | OVCAR-3 42.8 µM | NCI-H226 34.4 µM

CC(C)CCC[C@@H](C)C1CCC2[C@@H]3CC=C4C[C@@H](C(=O)NCCN(C)C)CC[C@]4(C)C3CC[C@@]21C (some centres not stated)
inactive: DLD-1 36.1 µM | SK-MEL-5 > 10 µM | SNB-19 28.6 µM | CAKI-1 22.3 µM | SNB-75 20.4 µM | LOX IMVI 51.4 µM | A498 32.5 µM | HL-60 45.8 µM | Malme-3M 28.9 µM | NCI-H522 41 µM | UACC-62 42.4 µM | COLO 205 19.5 µM | A549 23.1 µM | OVCAR-3 31.4 µM | NCI-H226 19.9 µM

CCCC(OCC)(OCC)OCC
inactive: DLD-1 > 100 µM | SK-MEL-5 > 100 µM | SNB-19 > 100 µM | CAKI-1 > 100 µM | SNB-75 > 100 µM | LOX IMVI 48.8 µM | A498 > 100 µM | HL-60 > 100 µM | Malme-3M > 100 µM | NCI-H522 > 100 µM | UACC-62 > 100 µM | COLO 205 > 100 µM | A549 > 100 µM | OVCAR-3 > 100 µM | NCI-H226 > 100 µM

O=c1c(O)cccn1C1OC(CO)C(O)C1O (configuration not stated)
inactive: DLD-1 > 100 µM | SNB-19 > 100 µM | CAKI-1 > 100 µM | SNB-75 > 100 µM | LOX IMVI > 100 µM | A498 > 100 µM | Malme-3M > 100 µM | NCI-H522 > 100 µM | UACC-62 > 100 µM | COLO 205 > 100 µM | A549 > 100 µM | NCI-H226 > 100 µM

CC(=O)OC1CC2C(C)(C)C(=O)C=C[C@]2(C)C2CCC3(C)C(c4ccoc4)C(=O)[C@H]4O[C@]43[C@]12C (some centres not stated)
inactive: DLD-1 13.6 µM | SK-MEL-5 17.7 µM | SNB-19 23.3 µM | CAKI-1 20.3 µM | SNB-75 29.8 µM | LOX IMVI 20 µM | A498 20.3 µM | HL-60 20.2 µM | Malme-3M 16.1 µM | NCI-H522 16.4 µM | UACC-62 18 µM | COLO 205 > 100 µM | A549 > 10 µM | NCI-H226 23.7 µM
